The target in one assay is T1, GAC (Mus musculus, UniProt D3Z7P3).
T1 construct: (residues 72-603) was cloned into a pET23a vector; His-tag with thrombin cleavage site (N, cleaved yes); made in house
T1 sequence (D3Z7P3 72-603 isoform D3Z7P3-2): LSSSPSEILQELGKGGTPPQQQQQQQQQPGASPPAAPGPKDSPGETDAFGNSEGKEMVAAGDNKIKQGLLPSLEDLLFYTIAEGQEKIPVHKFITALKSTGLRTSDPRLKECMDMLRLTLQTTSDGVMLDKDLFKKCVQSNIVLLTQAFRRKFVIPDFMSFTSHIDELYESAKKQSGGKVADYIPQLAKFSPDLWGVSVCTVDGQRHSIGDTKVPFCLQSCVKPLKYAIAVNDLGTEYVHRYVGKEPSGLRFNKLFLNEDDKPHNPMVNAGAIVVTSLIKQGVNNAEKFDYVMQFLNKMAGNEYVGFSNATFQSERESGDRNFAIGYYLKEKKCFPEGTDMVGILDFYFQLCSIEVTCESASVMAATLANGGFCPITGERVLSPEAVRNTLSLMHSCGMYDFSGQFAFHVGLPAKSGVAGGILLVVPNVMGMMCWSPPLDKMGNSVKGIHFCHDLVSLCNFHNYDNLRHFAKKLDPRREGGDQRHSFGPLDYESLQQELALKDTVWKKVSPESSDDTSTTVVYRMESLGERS
The experiment in a line: Real-time GAC enzyme activity assay coupled to glutamate dehydrogenase (NADH fluorescence). Type of assay: biochemical. As to the method:
A plasmid encoding the mouse kidney-type glutaminase isoform 2 (GAC, GenBank Accession No. NP_001106854.1, which is hereby incorporated by reference in its entirety) (residues 72-603) was cloned into a pET23a vector containing an N-terminal histidine (His)-tag and thrombin cleavage site. The expressed protein was purified using Co^2+ affinity beads (Clontech), followed by His-tag cleavage with human thrombin (Haemetologic Technologies) overnight at 4° C., and subsequently purified by anion exchange (GE healthcare) and gel filtration chromatography. Purified GAC was stored in a high salt-containing buffer (20 mM Tris-HCl pH 8.5, 500 mM NaCl, 1 mM NaN3) at −80° C., following snap freezing in liquid N2 for long term use. Labeling recombinant GAC with small molecule probes was performed by exchanging 1.5 mg of enzyme into 50 mM HEPES, pH 7.2, and 100 mM NaCl (labeling buffer), using a PD10 desalting column (GE healthcare). The enzyme was then incubated with 50 μM (5-fold excess of enzyme) of either AlexaFluor 488 succinimidyl ester or QSY9 succinimidyl ester (Molecular Probes) for 1 hour at 4° C. After 1 hour, the labeling reaction was quenched with 150 mM Tris-HCl, pH 8.5, and unreacted probe was separated from labeled-enzyme using a PD10 desalting column, eluting labeled-GAC back into the high salt-containing buffer. The stoichiometry of labeling was determined using the probe manufacturer's reported molar absorptivity values and instructions. Briefly, the concentration of GAC was determined by first correcting absorbance at 280 nm (Abs280) for each probe, using the reported correction values (0.11 for AlexaFluor 488 and 0.23 for QSY-9) and their absorbance values at their absorbance maxima (495 nm and 562 nm, respectively). The corrected Abs280 was used along with the experimentally determined molar absorptivity of GAC (ε280=38,850 M−1 cm−1). AlexaFluor 488 and QSY-9 probes were quantified using their respective absorbance maxima and the manufacturer's reported molar absorptivity values (ε495=71,000 M−1 cm−1 and ε562=85,000 M−1 cm−1).
Real-time fluorescence monitoring of 968 binding and GAC activity through production of NADH was performed on a Varian Cary Eclipse Fluorometer, whereas small molecule inhibition and binding titrations were performed in a 96-well format in a Tecan Saphire absorbance and fluorescence plate reader. Samples for monitoring real-time binding of 968 to 488-GAC were prepared by adding 10 μL of varying concentrations of 968 prepared in DMSO to an equilibrated 1 mL sample of 10 nM 488-GAC, while observing 488 fluorescence (490 nm excitation/520 nm emission). Similarly, this method was replicated for monitoring real-time binding of 968 to mutant forms of GAC, namely 488-labeled GAC (GD391K) and 488-GAC (D391K, K316E, R459E). Real-time activity assays monitoring 968 binding and NADH production were prepared in 1 mL samples, where 10 units of glutamate dehydrogenase (Sigma) and 2 mM NAD+ (Sigma) were prepared in 50 mM Tris-Acetate, pH 8.5, 0.1 mM EDTA and equilibrated at 20° C. WT GAC (10 nM) was added and allowed to equilibrate 2 minutes before monitoring the fluorescence emission of 488-GAC (490 nm excitation, 520 nm emission) and NADH (340 nm excitation, 490 nm emission). Appropriate dilutions of 968 or BPTES prepared in DMSO were introduced after 30 seconds and allowed to equilibrate for 2 minutes before a 180 μL solution of K2HPO4 and glutamine was added to make a final concentration of 50 mM K2HPO4 and 20 mM glutamine, to initiate GAC activation. The activity of GAC was measured in a coupled assay, by monitoring the NADH produced by glutamate dehydrogenase, which converts the product of the glutaminase-catalyzed reaction, glutamate, to α-ketoglutarate and ammonia by reducing NAD+ to NADH. […]

The target of a further assay is T2, 488-GAC and QSY9-GAC (Mus musculus, UniProt D3Z7P3).
T2 construct: (residues 72-603) was cloned into a pET23a vector; His-tag with thrombin cleavage site (N, cleaved yes); made in house
T2 sequence (D3Z7P3 72-603 isoform D3Z7P3-2): T1 sequence (D3Z7P3 72-603 isoform D3Z7P3-2)
The experiment in a line: FRET assay for GAC tetramer formation. Type of assay: binding. The conditions noted are these: 25 nM 488-GAC and 25 nM QSY9-GAC. As to the method:
Fluorescence experiments were performed using a Varian Cary Eclipse Fluorometer in the counting mode. Excitation and emission wavelengths were 490 and 520 nm, respectively. Experiments were all performed using 1-mL samples with continuous stirring at 20° C. in 50 mM Tris-Acetate, pH 8.5, 0.1 mM ethylenediamine tetraacetic acid (EDTA). For wild-type (WT) GAC titrations in the absence of inorganic phosphate, 25 nM 488-GAC was equilibrated with 25 μL of QSY9-GAC (at varying concentrations) and allowed to equilibrate for 10 minutes, at which point 75 μL of the appropriate concentration of unlabeled WT GAC was added to provide a 10-fold excess over labeled-GAC. To test whether the purified GAC mutants can form oligomers with WT GAC, 200 nM QSY9-GAC (D391K) or 200 nM QSY9-GAC (D391K, K316E, R459E) was added to an equilibrated sample of 20 nM 488-WT GAC. When assaying the effects of BPTES and 968 on oligomer formation, BPTES or 968 was added following equilibration of a sample of 25 nM QSY9-WT GAC and 25 nM 488-WT GAC. Both BPTES and 968 were prepared in DMSO, and appropriate dilutions were made so that less than 2% (v/v) DMSO was added to an experimental sample.

The structures appear in SMILES notation.

Regarding `CN(C)c1ccc(C2Nc3ccc4ccccc4c3C3=C2C(=O)CC(C)(C)C3)cc1Br` (stereo not drawn) [Compound 968], the “inhibition of enzyme activity” value against GAC (GAC pre-incubated with 968 before adding phosphate) is listed as “strongly inhibited”. Further, on 488-GAC and QSY9-GAC, the “effect on GAC tetramer formation (488-GAC emission in mixture with QSY9-GAC)” value was “does not appear to interfere with GAC tetramer formation”.

Turning to `CC1(C)CC(=O)C2=C(C1)c1c(ccc3cc4ccccc4cc13)NC2c1ccc(N=[N+]=[N-])cc1` (stereo not drawn) [SU-22], at GAC (in vitro inhibition, FIG. 9 / FIG. 11), the “concentration inhibiting the GAC isoform compared with parent compound 968” value is listed as “lower concentration than the parent compound, 968”.
